Experimental data reported in ChEMBL document CHEMBL1828530, “Quinonoid and phenazine compounds: synthesis and evaluation against H37Rv, rifampicin and isoniazid-resistance strains of Mycobacterium tuberculosis” (Eur J Med Chem, 2011).
Converted amounts (≈) assume the structure as drawn.

Legend:
[1] = test system: Mycobacterium tuberculosis; assay: Antitubercular activity against rifampicin-resistant Mycobacterium tuberculosis ATCC 35338 harboring His-526-Tri mutation in rpoB gene after 9 days by resazurin reduction assay; assay type: functional
[2] = test system: Mycobacterium tuberculosis; assay: Antitubercular activity against isoniazid-resistant Mycobacterium tuberculosis ATCC 35822 harboring Ser-315-Tri mutation in katG gene after 9 days by resazurin reduction assay; assay type: functional

CC(C)CCC1=C(O)C(=O)c2ccccc2C1=O
MIC [1]: 205 µM (≈ 50.1 µg/mL) | MIC [2]: 205 µM (≈ 50.1 µg/mL)

CC(C)CC1=C(O)C(=O)c2ccccc2C1=O
MIC [1]: 108.7 µM (≈ 25 µg/mL) | MIC [2]: 217.4 µM (≈ 50.1 µg/mL)

CC(C)CC1=C(O)C(=O)C2=C(CCCC2)C1=O
MIC [1]: 53.35 µM (≈ 12.5 µg/mL) | MIC [2]: 106.7 µM (≈ 25 µg/mL)

CCCC1=C(O)C(=O)c2ccccc2C1=O
MIC [1]: 231.25 µM (≈ 50 µg/mL) | MIC [2]: 462.5 µM (≈ 100 µg/mL)

CCCC1=C(O)C(=O)C2=C(CCCC2)C1=O
MIC [1]: 113.5 µM (≈ 25 µg/mL) | MIC [2]: 113.5 µM (≈ 25 µg/mL)

CC(C)=CCC1=C(OC2(CC=C(C)C)C(=O)c3ccccc3-c3nc4ccccc4nc32)C(=O)c2ccccc2C1=O (stereo not drawn)
MIC [1]: 180.2 µM (≈ 99.9 µg/mL) | MIC [2]: >180.2 µM

CC(C)CCc1c2[nH]c3ccccc3nc-2c2ccccc2c1=O
MIC [1]: 39.5 µM (≈ 12.5 µg/mL) | MIC [2]: 39.5 µM (≈ 12.5 µg/mL)

CC(C)CCc1c2[nH]c3ccccc3nc-2c2c(c1=O)CCCC2
MIC [1]: 39.1 µM (≈ 12.5 µg/mL) | MIC [2]: >312.5 µM

CC(C)CCC1=C(OC2(CCC(C)C)C(=O)c3ccccc3-c3nc4ccccc4nc32)C(=O)c2ccccc2C1=O (stereo not drawn)
MIC [1]: >178.9 µM | MIC [2]: >178.9 µM

CC(C)CCC1=C(OC2(CCC(C)C)C(=O)C3=C(CCCC3)c3nc4ccccc4nc32)C(=O)C2=C(CCCC2)C1=O (stereo not drawn)
MIC [1]: 176.4 µM (≈ 100 µg/mL) | MIC [2]: >176.4 µM

CC(C)=Cc1c2[nH]c3ccccc3nc-2c2ccccc2c1=O
MIC [1]: 83.3 µM (≈ 25 µg/mL) | MIC [2]: 83.3 µM (≈ 25 µg/mL)

CC(C)Cc1c2[nH]c3ccccc3nc-2c2ccccc2c1=O
MIC [1]: >331.1 µM | MIC [2]: >331.1 µM

CC(C)Cc1c2[nH]c3ccccc3nc-2c2c(c1=O)CCCC2
MIC [1]: >326.8 µM | MIC [2]: >326.8 µM

CC(C)CC1=C(OC2(CC(C)C)C(=O)c3ccccc3-c3nc4ccccc4nc32)C(=O)c2ccccc2C1=O (stereo not drawn)
MIC [1]: >188.3 µM | MIC [2]: >188.3 µM

CC(C)CC1=C(OC2(CC(C)C)C(=O)C3=C(CCCC3)c3nc4ccccc4nc32)C(=O)C2=C(CCCC2)C1=O (stereo not drawn)
MIC [1]: 46.4 µM (≈ 25 µg/mL) | MIC [2]: 46.4 µM (≈ 25 µg/mL)

C=CCC1=C(O)C(=O)c2ccccc2C1=O
MIC [1]: 116.8 µM (≈ 25 µg/mL) | MIC [2]: 467.3 µM (≈ 100 µg/mL)

C=CCc1c2[nH]c3ccccc3nc-2c2ccccc2c1=O
MIC [1]: 174.8 µM (≈ 50.1 µg/mL) | MIC [2]: 43.7 µM (≈ 12.5 µg/mL)

C=CCC1=C(OC2(CC=C)C(=O)c3ccccc3-c3nc4ccccc4nc32)C(=O)c2ccccc2C1=O (stereo not drawn)
MIC [1]: >200.8 µM | MIC [2]: >200.8 µM

CCCC1=C(OC2(CCC)C(=O)c3ccccc3-c3nc4ccccc4nc32)C(=O)c2ccccc2C1=O (stereo not drawn)
MIC [1]: >198.8 µM | MIC [2]: >198.8 µM

CCCC1=C(OC2(CCC)C(=O)C3=C(CCCC3)c3nc4ccccc4nc32)C(=O)C2=C(CCCC2)C1=O (stereo not drawn)
MIC [1]: 195.7 µM (≈ 99.9 µg/mL) | MIC [2]: >195.7 µM

CC(C)CCC1=C(O)C(=O)C2=C(CCCC2)C1=O
MIC [1]: 50.4 µM (≈ 12.5 µg/mL) | MIC [2]: 100.8 µM (≈ 25 µg/mL)

CC(C)=CC1=C(O)C(=O)c2ccccc2C1=O
MIC [1]: 13.7 µM (≈ 3.13 µg/mL) | MIC [2]: 438.6 µM (≈ 100 µg/mL)

NNC(=O)c1ccncc1 [ISONIAZID]
MIC [2]: 1.45 µM (≈ 0.199 µg/mL)

CC(C)=CCC1=C(O)C(=O)c2ccccc2C1=O [LAPACHOL]
MIC [1]: 206.6 µM (≈ 50.1 µg/mL) | MIC [2]: 413.2 µM (≈ 100 µg/mL)

CO[C@H]1/C=C/O[C@@]2(C)Oc3c(C)c(O)c4c(O)c(c(/C=N/N5CCN(C)CC5)c(O)c4c3C2=O)NC(=O)/C(C)=C\C=C\[C@H](C)[C@H](O)[C@@H](C)[C@@H](O)[C@@H](C)[C@H](OC(C)=O)[C@@H]1C [RIFAMPIN]
MIC [1]: 2.43 µM (≈ 2 µg/mL)
